target: T1, glucan synthase (GS) (Candida albicans, UniProt O13428); experiment: Glucan synthase inhibition (polymerization assay, 96-well); type: biochemical; conditions: glucan synthase prepared from Candida albicans MY1055; 60 min incubation at 22° C.; read-out: Candida Albicans GS IC50 (ng/mL) (converted)
T1 construct: Extraction of GS activity from membranes was performed at a protein concentration of 5 mg/mL in extraction buffer; endogenous in cells; host or cells: Candida albicans MY1055 (membrane fraction, detergent extraction, product entrapment)
T1 sequence (O13428 1-1897): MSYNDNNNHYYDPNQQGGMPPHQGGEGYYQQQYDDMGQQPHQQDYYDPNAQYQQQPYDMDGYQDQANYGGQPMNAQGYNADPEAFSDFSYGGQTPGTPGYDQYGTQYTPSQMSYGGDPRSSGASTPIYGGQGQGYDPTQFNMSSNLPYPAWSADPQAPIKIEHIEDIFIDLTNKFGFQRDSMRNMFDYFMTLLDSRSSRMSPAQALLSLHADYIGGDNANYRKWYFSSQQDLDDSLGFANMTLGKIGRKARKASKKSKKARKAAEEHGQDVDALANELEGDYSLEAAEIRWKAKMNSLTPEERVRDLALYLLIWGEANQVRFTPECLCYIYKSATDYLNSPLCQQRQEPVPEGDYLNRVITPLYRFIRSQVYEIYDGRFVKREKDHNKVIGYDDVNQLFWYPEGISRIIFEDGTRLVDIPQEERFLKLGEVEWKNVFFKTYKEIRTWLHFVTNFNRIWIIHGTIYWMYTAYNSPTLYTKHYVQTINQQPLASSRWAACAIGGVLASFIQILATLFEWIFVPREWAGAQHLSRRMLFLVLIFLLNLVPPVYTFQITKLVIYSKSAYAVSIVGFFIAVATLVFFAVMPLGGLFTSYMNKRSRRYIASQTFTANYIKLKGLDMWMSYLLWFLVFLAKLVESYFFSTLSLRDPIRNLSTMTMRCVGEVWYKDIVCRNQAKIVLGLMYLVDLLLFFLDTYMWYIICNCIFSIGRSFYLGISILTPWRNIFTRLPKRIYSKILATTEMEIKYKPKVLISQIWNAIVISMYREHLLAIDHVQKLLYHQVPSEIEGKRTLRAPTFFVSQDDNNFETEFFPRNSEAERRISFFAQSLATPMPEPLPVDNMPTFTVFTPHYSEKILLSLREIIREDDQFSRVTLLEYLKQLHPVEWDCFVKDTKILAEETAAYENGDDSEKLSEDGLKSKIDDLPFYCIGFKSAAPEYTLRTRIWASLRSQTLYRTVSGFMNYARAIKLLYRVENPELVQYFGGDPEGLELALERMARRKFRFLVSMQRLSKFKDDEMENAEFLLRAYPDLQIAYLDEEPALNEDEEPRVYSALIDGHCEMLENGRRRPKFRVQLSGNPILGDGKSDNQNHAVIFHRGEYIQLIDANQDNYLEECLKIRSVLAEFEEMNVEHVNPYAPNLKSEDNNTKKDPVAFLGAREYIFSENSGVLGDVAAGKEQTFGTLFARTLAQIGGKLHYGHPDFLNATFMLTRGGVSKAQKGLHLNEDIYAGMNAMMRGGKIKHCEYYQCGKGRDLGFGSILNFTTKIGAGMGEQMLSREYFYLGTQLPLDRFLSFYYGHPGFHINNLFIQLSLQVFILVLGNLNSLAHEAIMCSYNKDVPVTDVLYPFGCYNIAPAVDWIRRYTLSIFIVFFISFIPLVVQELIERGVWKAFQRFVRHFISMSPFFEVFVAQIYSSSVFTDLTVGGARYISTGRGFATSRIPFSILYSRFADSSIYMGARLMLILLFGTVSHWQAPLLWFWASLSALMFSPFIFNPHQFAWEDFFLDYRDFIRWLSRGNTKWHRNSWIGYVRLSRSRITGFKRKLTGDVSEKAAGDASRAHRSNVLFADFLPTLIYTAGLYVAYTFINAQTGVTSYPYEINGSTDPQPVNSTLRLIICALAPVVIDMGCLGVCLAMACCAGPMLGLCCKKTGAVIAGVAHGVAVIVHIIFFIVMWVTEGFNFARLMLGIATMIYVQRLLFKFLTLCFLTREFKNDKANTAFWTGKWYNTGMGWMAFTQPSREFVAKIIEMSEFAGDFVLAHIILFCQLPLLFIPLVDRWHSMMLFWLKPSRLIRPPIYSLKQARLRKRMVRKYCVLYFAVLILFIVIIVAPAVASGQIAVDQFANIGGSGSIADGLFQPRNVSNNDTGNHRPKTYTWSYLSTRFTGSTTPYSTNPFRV
T1 sequence (O42825 1-195 partner limits assumed): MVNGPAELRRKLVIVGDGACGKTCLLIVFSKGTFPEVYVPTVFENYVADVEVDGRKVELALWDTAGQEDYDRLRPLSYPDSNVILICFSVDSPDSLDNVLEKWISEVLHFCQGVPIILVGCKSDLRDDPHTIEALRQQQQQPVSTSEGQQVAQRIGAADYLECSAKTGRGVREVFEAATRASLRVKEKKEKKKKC
Summary of the method: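 Partially purified membrane glucan synthase from C. albicans MY1055, 60 min at 22° C with 0.5 mM 3H-UDPG, 25 μM GTP-γ-S, pH 7.5 HEPES, 25 mM KF. TCA-precipitated glucan filtered and scintillation counted; IC50 (ng/mL) from sigmoidal fit of duplicates over 3-fold dilutions.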

IC50 [nM]	Compound
81.8	CC(=O)Nc1nnnn1[C@@H]1C[C@@]23COC[C@](C)([C@@H]2CC[C@H]2C3=CC[C@@]3(C)[C@H](C(=O)O)[C@@](C)([C@H](C)C(C)C)CC[C@]23C)[C@H]1OC[C@](C)(N)C(C)C [Example 38A, (1S,4aR,6aS,7R,8R,10aR,10bR,12aR,14R,15R)-14-[5-(acetylamino)-1H-tetrazol-1-yl]-15-[[(2R)-2-amino-2,3-dimethylbutyl]oxy]-8-[(1R)-1,2-dimethylpropyl]-1,6,6a,7,8,9,10,10a,10b,11,12,12a-dodecahydro-1,6a,8,10a-tetramethyl-4H-1,4a-propano-2H-phenanthro[1,2-c]pyran-7-carboxylic acid]
78.8	CC(C)[C@@H](C)[C@@]1(C)CC[C@]2(C)[C@H]3CC[C@@H]4[C@@]5(COC[C@@]4(C)[C@@H](OC[C@](C)(C(C)C)N4CCCCC4)[C@H](n4nnc(N)n4)C5)C3=CC[C@@]2(C)[C@@H]1C(=O)O [Example 11, (1S,4aR,6aS,7R,8R,10aR,10bR,12aR,14R,15R)-14-(5-amino-2H-tetrazol-2-yl)-15-[[(2S)-2,3-dimethyl-2-(1-piperidinyl)butyl]oxy]-8-[(1R)-1,2-dimethylpropyl]-1,6,6a,7,8,9,10,10a,10b,11,12,12a-dodecahydro-1,6a,8,10a-tetramethyl-4H-1,4a-propano-2H-phenanthro[1,2-c]pyran-7-carboxylic acid]
11.5	CCCN[C@@](C)(CO[C@H]1[C@H](n2nnc(N)n2)C[C@@]23COC[C@]1(C)[C@@H]2CC[C@H]1C3=CC[C@@]2(C)[C@H](C(=O)O)[C@@](C)([C@H](C)C(C)C)CC[C@]12C)C(C)C [Example 55, (1S,4aR,6aS,7R,8R,10aR,10bR,12aR,14R,15R)-14-(5-amino-2H-tetrazol-2-yl)-15-[[(2R)-2,3-dimethyl-2-(propylamino)butyl]oxy]-8-[(1R)-1,2-dimethylpropyl]-1,6,6a,7,8,9,10,10a,10b,11,12,12a-dodecahydro-1,6a,8,10a-tetramethyl-4H-1,4a-propano-2H-phenanthro[1,2-c]pyran-7-carboxylic acid]
12.7	CCCCN[C@](C)(CO[C@H]1[C@H](n2nnc(N)n2)C[C@@]23COC[C@]1(C)[C@@H]2CC[C@H]1C3=CC[C@@]2(C)[C@H](C(=O)O)[C@@](C)([C@H](C)C(C)C)CC[C@]12C)C(C)C [Example 71, (1S,4aR,6aS,7R,8R,10aR,10bR,12aR,14R,15R)-14-(5-amino-2H-tetrazol-2-yl)-15-[[(2S)-2-(butylamino)-2,3-dimethylbutyl]oxy]-8-[(1R)-1,2-dimethylpropyl]-1,6,6a,7,8,9,10,10a,10b,11,12,12a-dodecahydro-1,6a,8,10a-tetramethyl-4H-1,4a-propano-2H-phenanthro[1,2-c]pyran-7-carboxylic acid]
15.5	CN[C@@](C)(CO[C@H]1[C@H](n2nnc(NC(C)=O)n2)C[C@@]23COC[C@]1(C)[C@@H]2CC[C@H]1C3=CC[C@@]2(C)[C@H](C(=O)O)[C@@](C)([C@H](C)C(C)C)CC[C@]12C)C(C)C [Example 39B, (1S,4aR,6aS,7R,8R,10aR,10bR,12aR,14R,15R)-14-[5-(acetylamino)-2H-tetrazol-2-yl]-15-[[(2R)-2,3-dimethyl-2-(methylamino)butyl]oxy]-8-[(1R)-1,2-dimethylpropyl]-1,6,6a,7,8,9,10,10a,10b,11,12,12a-dodecahydro-1,6a,8,10a-tetramethyl-4H-1,4a-propano-2H-phenanthro[1,2-c]pyran-7-carboxylic acid]
118	CC(C)[C@@H](C)[C@@]1(C)CC[C@]2(C)[C@H]3CC[C@@H]4[C@@]5(COC[C@@]4(C)[C@@H](OCCN)[C@H](n4cnnn4)C5)C3=CC[C@@]2(C)[C@@H]1C(=O)O [Example 104, (1S,4aR,6aS,7R,8R,10aR,10bR,12aR,14R,15R)-15-(2-aminoethoxy)-8-[(1R)-1,2-dimethylpropyl]-14-(1H-tetrazol-1-yl)-1,6,6a,7,8,9,10,10a,10b,11,12,12a-dodecahydro-1,6a,8,10a-tetramethyl-4H-1,4a-propano-2H-phenanthro[1,2-c]pyran-7-carboxylic acid]
26.7	CC(C)[C@@H](C)[C@@]1(C)CC[C@]2(C)[C@H]3CC[C@@H]4[C@@]5(COC[C@@]4(C)[C@@H](OC[C@H](N)c4ccccc4)[C@H](n4nnc(N)n4)C5)C3=CC[C@@]2(C)[C@@H]1C(=O)O [Example 88, (1S,4aR,6aS,7R,8R,10aR,10bR,12aR,14R,15R)-14-(5-amino-2H-tetrazol-2-yl)-15-[(2R)-2-amino-2-phenylethoxy]-8-[(1R)-1,2-dimethylpropyl]-1,6,6a,7,8,9,10,10a,10b,11,12,12a-dodecahydro-1,6a,8,10a-tetramethyl-4H-1,4a-propano-2H-phenanthro[1,2-c]pyran-7-carboxylic acid]
11.7	CNC1(CO[C@H]2[C@H](n3nnc(N)n3)C[C@@]34COC[C@]2(C)[C@@H]3CC[C@H]2C4=CC[C@@]3(C)[C@H](C(=O)O)[C@@](C)([C@H](C)C(C)C)CC[C@]23C)CCCCC1 [Example 32, (1S,4aR,6aS,7R,8R,10aR,10bR,12aR,14R,15R)-14-(5-amino-2H-tetrazol-2-yl)-8-[(1R)-1,2-dimethylpropyl]-15-[[1-(methylamino)cyclohexyl]methoxy]-1,6,6a,7,8,9,10,10a,10b,11,12,12a-dodecahydro-1,6a,8,10a-tetramethyl-4H-1,4a-propano-2H-phenanthro[1,2-c]pyran-7-carboxylic acid]
9.36	CC(C)[C@H](N)CO[C@H]1[C@H](n2nnc(N)n2)C[C@@]23COC[C@]1(C)[C@@H]2CC[C@H]1C3=CC[C@@]2(C)[C@H](C(=O)O)[C@@](C)([C@H](C)C(C)C)CC[C@]12C [Example 93, (1S,4aR,6aS,7R,8R,10aR,10bR,12aR,14R,15R)-14-(5-amino-2H-tetrazol-2-yl)-15-[[(2S)-2-amino-3-methylbutyl]oxy]-8-[(1R)-1,2-dimethylpropyl]-1,6,6a,7,8,9,10,10a,10b,11,12,12a-dodecahydro-1,6a,8,10a-tetramethyl-4H-1,4a-propano-2H-phenanthro[1,2-c]pyran-7-carboxylic acid]
8.78	CN[C@](C)(CO[C@H]1[C@H](n2nnc(N)n2)C[C@@]23COC[C@]1(C)[C@@H]2CC[C@H]1C3=CC[C@@]2(C)[C@H](C(=O)O)[C@@](C)([C@H](C)C(C)C)CC[C@]12C)C(C)(C)C [Example 112, (1S,4aR,6aS,7R,8R,10aR,10bR,12aR,14R,15R)-14-(5-amino-2H-tetrazol-2-yl)-8-[(1R)-1,2-dimethylpropyl]-15-[[(2S)-2,3,3-trimethyl-2-(methylamino)butyl]oxy]-1,6,6a,7,8,9,10,10a,10b,11,12,12a-dodecahydro-1,6a,8,10a-tetramethyl-4H-1,4a-propano-2H-phenanthro[1,2-c]pyran-7-carboxylic acid]
2.8	CC(C)[C@@H](C)[C@@]1(C)CC[C@]2(C)[C@H]3CC[C@@H]4[C@@]5(COC[C@@]4(C)[C@@H](OC[C@](C)(NCCCO)C(C)C)[C@H](n4nnc(N)n4)C5)C3=CC[C@@]2(C)[C@@H]1C(=O)O [Example 13, (1S,4aR,6aS,7R,8R,10aR,10bR,12aR,14R,15R)-14-(5-amino-2H-tetrazol-2-yl)-8-[(1R)-1,2-dimethylpropyl]-15-[[(2R)-2-[(3-hydroxypropyl)amino]-2,3-dimethylbutyl]oxy]-1,6,6a,7,8,9,10,10a,10b,11,12,12a-dodecahydro-1,6a,8,10a-tetramethyl-4H-1,4a-propano-2H-phenanthro[1,2-c]pyran-7-carboxylic acid]
